# Reference: patent US4888417A, “Therapeutic and prophylactic agents for peptic ulcer” (Green Cross Corporation, priority 1985, dated 1989)
# Tests used:
# [1] = test system: Serotonin Induced Ulcer; test: Serotonin Induced Ulcer; assay type: in vivo, Wister strain male rats; set-up: unit not given here; conditions: 30 min before serotonin; for Ulcer Index: mean ± standard error (n=8)
# Procedure: Wister strain male rats (weighing 160 to 180 g) were used after one day's fasting. Serotonin creatinine sulfate (30 mg/ml) was subcutaneously administered to the rats on the back at a rate of 1 ml per kg of the body weight. The stomach was excised 5 hours after administration of serotonin, and the total area of hemorrhagic erosion was measured as an ulcer index. The test drug was intragastrically administered to the rats through an oral Zonde (probe) 30 minutes before administration of serotonin.
# (§1) Each numeral in the table indicates the mean ± standard error (n=8)
# (§2) All the test drugs (compounds of this invention) were intragastrically administered by an oral Zonde (probe).
# [2] = test system: Stress Ulcer; test: Stress Ulcer; assay type: in vivo, Wister strain male rats; conditions: immediately before stress; for Ulcer Index: mean ± standard error (n=8)
# Procedure: Wister strain male rats (weighing 230-250 g) were fasted for 2 days, then, while confined in a Tokyo University Pharmaceutics Laboratory model cage, they were immersed up to the xiphocosta and pulled up 6 hours later, to determine the ulcer index. That is, the rats were clubbed to death, the major axis of hemorrhagic erosion was measured, and the total was made the ulcer index. the test drug was intragastrically administered through an oral Zonde (probe) immediately before the loading of stress.
# as §1, §2
# [3] = test system: Ethanol Induced Ulcer; test: Ethanol Induced Ulcer; assay type: in vivo, Wister strain male rats; set-up: Rate of Inhibition: unit not given here; conditions: 30 min before ethanol; for Ulcer Index: mean ± standard error (n=8)
# Procedure: Wister strain male rats (weighing 160-180 g) were fasted for one day and intragastrically administed with 50% (v/v) ethanol at a rate of 1 ml per rat. The test drug was intragastirically administered through an oral Zonde (probe) 30 minutes before administration of ethanol. One hour after administration of ethanol, the rats were poisoned to death by inhalation of chloroform, each stomach was excised, the major axis of hemorrhagic erosion on the stomach part was measured, and the total was made an ulcer index.
# as §1, §2
# [4] = anti-ulcer activity used as index in fractionation; conditions: single (peak) component from HPLC fractionation of cinnamon extract
# Procedure: After washing with water, the resin was eluted using a 40 to 80% methanol aqueous solution as an eluent; the eluted fraction thus obtained was concentrated under reduced pressure and freeze dried to afford 148 g of a crude powder.
# 50 kg of cinnamon was treated with hot water at 60° to 100° C. for 1 to 2 hours, and the resultant extract was adsorbed onto 100 to 140 liters of the Amberlite XAD-2 resin. This resin was washed with water, then eluted using a 40 to 80% aqueous methanol solution as an eluent; the eluted fraction thus obtained was concentrated under reduced pressure and freeze dried to obtain 148 g of a crude powder.
# 200 kg of cinammon was treated with hot water at 60° to 100° C. for 1 to 2 hours, and the resultant extract was adsorbed onto 400 to 500 liters of the Amberlite XAD-2 resin. This resin was washed with water, then eluted with a 40 to 80% aqueous methanol solution as an eluent, the eluted fraction thus obtained was concentrated under reduced pressure and freeze-dried to obtain 590 g of a crude powder.
smiles,measurement,setting,value
"COc1cc(O)cc(OC)c1OC [(II-2), 3,4,5-trimethoxyphenol]",Rate of Inhibition,[1]; 0.05 μg/kg intragastric,26.7
same,Ulcer Index,[1]; 0.05 μg/kg intragastric,15.1 ± 4.6
same,Rate of Inhibition,[1]; 0.15 μg/kg intragastric,45.6
same,Ulcer Index,[1]; 0.15 μg/kg intragastric,11.2 ± 2.4
"COc1cc(O[C@@H]2O[C@H](CO[C@@H]3OC[C@](O)(CO)[C@H]3O)[C@@H](O)[C@H](O)[C@H]2O)cc(OC)c1OC [(II-1), 3,4,5-trimethoxyphenol-β-D-apiofranosyl-(1→6)-β-D-glucopyranoside]",Rate of Inhibition,[1]; 0.15 μg/kg intragastric,57.1
same,Ulcer Index,[1]; 0.15 μg/kg intragastric,7.5 ± 2.3
same,Rate of Inhibition,[1]; 0.30 μg/kg intragastric,70.9
same,Ulcer Index,[1]; 0.30 μg/kg intragastric,5.1 ± 1.9
same,Rate of Inhibition,[2]; 0.15 μg/kg intragastric,23.7
same,Ulcer Index,[2]; 0.15 μg/kg intragastric,21.6 ± 5.8
same,Rate of Inhibition,[2]; 0.30 μg/kg intragastric,58.5
same,Ulcer Index,[2]; 0.30 μg/kg intragastric,11.7 ± 3.0
same,Rate of Inhibition,[3]; 0.15 μg/kg intragastric,11.1
same,Ulcer Index,[3]; 0.15 μg/kg intragastric,45.3 ± 14.0
same,Rate of Inhibition,[3]; 0.30 μg/kg intragastric,47.1
same,Ulcer Index,[3]; 0.30 μg/kg intragastric,27.0 ± 7.4
same,anti-ulcer activity among fractions,[4],manifesting the activity most strongly
CC1=C(/C=C/C(CO)CO)C(C)(CO)CCC1=O (stereo not drawn) [(IV-2)],Rate of Inhibition,[1]; 0.06 μg/kg intragastric,65.7
same,Ulcer Index,[1]; 0.06 μg/kg intragastric,4.6 ± 1.2
same,Rate of Inhibition,[1]; 6 μg/kg intragastric,76.9
same,Ulcer Index,[1]; 6 μg/kg intragastric,3.1 ± 1.2
CC(=O)C=C=C1C(C)(C)CC(O[C@@H]2O[C@H](CO[C@@H]3OC[C@](O)(CO)[C@H]3O)[C@@H](O)[C@H](O)[C@H]2O)CC1(C)O (stereo partly drawn) [(III-1)],Rate of Inhibition,[1]; 0.075 μg/kg intragastric,2.9
same,Ulcer Index,[1]; 0.075 μg/kg intragastric,17.0 ± 3.1
same,Rate of Inhibition,[1]; 0.15 μg/kg intragastric,75.4
same,Ulcer Index,[1]; 0.15 μg/kg intragastric,4.3 ± 1.1
same,Rate of Inhibition,[2]; 0.075 μg/kg intragastric,41.3
same,Ulcer Index,[2]; 0.075 μg/kg intragastric,16.6 ± 3.2
same,Rate of Inhibition,[2]; 0.15 μg/kg intragastric,66.8
same,Ulcer Index,[2]; 0.15 μg/kg intragastric,9.4 ± 2.3
same,Rate of Inhibition,[3]; 0.075 μg/kg intragastric,51.6
same,Ulcer Index,[3]; 0.075 μg/kg intragastric,24.7 ± 10.6
same,Rate of Inhibition,[3]; 0.15 μg/kg intragastric,56.5
same,Ulcer Index,[3]; 0.15 μg/kg intragastric,22.2 ± 8.1
same,anti-ulcer activity among fractions,[4],manifesting the activity most strongly
"CC1=C(/C=C/C(CO)CO)C(C)(CO[C@@H]2O[C@H](CO)[C@@H](O)[C@H](O)[C@H]2O)CCC1=O (stereo partly drawn) [(IV-1), 2,4-dimethyl-3-(4-hydroxy-3-hydroxymethyl-1-butenyl)-4-(β-D-glucopyranosyl)oxymethyl-2-cyclohexen-1-one]",Rate of Inhibition,[1]; 0.1 μg/kg intragastric,47.0
same,Ulcer Index,[1]; 0.1 μg/kg intragastric,7.1 ± 3.4
same,Rate of Inhibition,[1]; 1 μg/kg intragastric,51.5
same,Ulcer Index,[1]; 1 μg/kg intragastric,6.5 ± 2.5
same,anti-ulcer activity among fractions,[4],manifesting the activity most strongly
